Measured values taken from the NIST ThermoML archive (doi:10.1016/j.jct.2015.02.002).
Numbers after ± are expanded uncertainties.

Details: Crystal; visual observation

Normal melting temperature: 130.00 ± 0.5 °C
Compound: O=C(O)CC(O)C(=O)O (stereo unspecified) [hydroxybutanedioic acid]
